Patent US8273754B2, “Substituted 1H-pyrazolo[3,4-D]pyrimidine-6-amine compounds” (ArQule, Inc., priority 2008, dated 2012)
Where two headings read alike, the source gives them in different places.

Columns and labels:
[1] = test system: cancer cells; experiment: MTS cell growth inhibition assay (72 hours); assay type: cell-based
How it was run: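 Growth inhibition read as formazan absorbance at 492 nm after 4 h MTS/PMS, following 72 h compound exposure at 37 °C in 1% FBS DMEM (cells pre-seeded 18 h). IC50 = 50% absorbance reduction; inhibition graded in bands.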

[2] = target: T1, FGFR2 (N549H) (Homo sapiens, UniProt P21802, N549H); experiment: fluorescent ELISA assay for inhibitors of FGFR2 kinase; assay type: biochemical; settings: Pyk2 peptide substrate, 60 minutes
T1 construct: purchased Millipore 14-742
Procedure: The enzymatic assays described herein are conducted according to the following procedures from commercially available reagents. In one non-limiting example, a fluorescent ELISA assay is used to identify and characterize inhibitors of FGFR2 kinase as described herein. This heterogeneous assay utilizes a biotinylated peptide with a tyrosine motif as a substrate and an anti-phospho-tyrosine antibody to measure phosphorylation of the substrate. The reaction is initiated by adding the test compound, 37 μM Pyk2 substrate (Midwest Biotech, Cat. #MBT2383), 12.5 μM ATP (Roche, Cat. #11 140 965 001) and 0.5 μM FGFR2 enzyme (Millipore, Cat. #14-742) sequentially to a non-binding polypropylene V-well plate. All reagents are in an assay buffer consisting of: 50 mM Tris-HCL, 0.02 mg/ml BSA, 10 mM MgCl2, 0.1 mM Na3VO4, 1 mM EGTA, 75 μM ATP, 0.01% NP-40, 2 mM DTT and 10% glycerol. The reaction is incubated for 60 minutes. As the reaction proceeds, FGFR2 phosphorylates tyrosines in the peptide. The reaction mixture is then moved to a blocked streptavidin-coated Nunc Maxisorb plate (coated with 100 ng streptavidin from Pierce (Cat. #15-124) per well), allowing for the capture of the biotinylated peptide. Peptides are captured for 30 minutes at room temperature, the phosphorylation of peptides continues during this phase. The reaction is stopped by washing the streptavidin-coated plate 6 times with TBST. Phosphorylated peptide is detected by adding anti-phospho-tyrosine antibody (Cell Signaling, Cat. #9411, diluted 1:3000) to the streptavidin-coated plate. Unbound anti-phospho-tyrosine antibody is removed by washing the streptavidin-coated plate 6 times with TBST. Secondary detection is performed using alkaline phosphatase tagged goat anti-mouse antibody (Pierce, Cat. #31320, diluted 1:4000) for one hour. Unbound secondary antibody is removed by washing the streptavidin-coated plate 6 times with TBST. The fluorescent readout is initiated by adding to the streptavidin-coated plate Promega Attophos substrate (Promega, Cat. #S1000, dilution=6 mg/10 ml), which, when dephosphorylated by alkaline phosphatase, emits a fluorescent signal of 595 nm in wavelength when excited by a signal of 400 nm in wavelength. The reading of the 595 nm signal is done on the Perkin Elmer Envision system. Compounds which prevent FGFR2 from phosphorylating the peptide result in a lower fluorescent signal. The 595 nm fluorescent signal is directly proportional to the activity of FGFR2. Thus, the inhibition of FGFR2 by compounds is monitored by the decrease in the 595 nm fluorescent signal.

[3] = Homo sapiens, DLD-1, 72 h, DLD-1 cells, read-out: DLD-1 MTS 72 hr at 10 μM
[4] = Homo sapiens, KATO III, 72 h, KATO III cells, read-out: KATO III MTS 72 hr at 10 μM
[5] = Homo sapiens, MDA-MB-231, 72 h, MDA-MB-231 cells, read-out: MDA-MB-231 MTS 72 hr at 10 μM
[6] = Homo sapiens, NCI-H1299, 72 h, NCI-H1299 cells, read-out: NCI-H1299 MTS 72 hr at 10 μM
[7] = PaCa-2, 72 h, PACA-2 cells, read-out: PACA-2 MTS 72 hr at 10 μM

T1 sequence (P21802 22-821 N549H): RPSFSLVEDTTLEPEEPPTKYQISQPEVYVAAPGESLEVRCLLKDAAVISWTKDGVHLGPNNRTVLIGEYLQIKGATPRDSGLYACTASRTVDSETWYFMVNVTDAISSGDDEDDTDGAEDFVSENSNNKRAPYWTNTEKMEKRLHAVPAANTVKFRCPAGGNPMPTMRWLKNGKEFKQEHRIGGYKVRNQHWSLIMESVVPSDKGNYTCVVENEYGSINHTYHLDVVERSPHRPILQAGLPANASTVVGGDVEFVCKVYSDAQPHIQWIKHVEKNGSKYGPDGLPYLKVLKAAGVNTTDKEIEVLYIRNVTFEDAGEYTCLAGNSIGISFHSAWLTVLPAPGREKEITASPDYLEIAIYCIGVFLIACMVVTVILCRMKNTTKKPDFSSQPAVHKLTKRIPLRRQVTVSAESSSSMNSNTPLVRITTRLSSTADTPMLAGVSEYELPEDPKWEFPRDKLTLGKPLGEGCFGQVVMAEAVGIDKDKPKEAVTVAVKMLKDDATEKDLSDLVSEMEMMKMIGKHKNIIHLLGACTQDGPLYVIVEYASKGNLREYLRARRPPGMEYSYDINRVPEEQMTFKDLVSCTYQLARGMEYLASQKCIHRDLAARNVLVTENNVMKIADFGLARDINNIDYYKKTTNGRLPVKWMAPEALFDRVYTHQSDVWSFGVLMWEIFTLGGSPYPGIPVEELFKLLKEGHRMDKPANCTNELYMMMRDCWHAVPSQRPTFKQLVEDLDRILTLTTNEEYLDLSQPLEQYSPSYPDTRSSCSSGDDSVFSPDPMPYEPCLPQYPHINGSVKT

Row | IC50 [2] | SMILES | inhibition at 10 µM [1, 3] | inhibition at 10 µM [1, 4] | inhibition at 10 µM [1, 5] | inhibition at 10 µM [1, 6] | inhibition at 10 µM [1, 7]
1 | 1550 nM | CN(c1nc(N)nc2[nH]ncc12)C1Cc2ccccc2N(Cc2ccc(Cl)c(Cl)c2)C1 (centres unmarked) [Compound 10, N^4-(1-(3,4-dichlorobenzyl)-1,2,3,4-tetrahydroquinolin-3-yl)-N^4-methyl-1H-pyrazolo[3,4-d]pyrimidine-4,6-diamine] | < 50% | 50 to 79% | < 50% | < 50% | < 50%
2 | 410 nM | Nc1nc(NC2Cc3ccccc3N(S(=O)(=O)c3ccc(F)cc3Cl)C2)c2cn[nH]c2n1 (centres unmarked) [Compound 53, N4-(1-(2-chloro-4-fluorophenylsulfonyl)-1,2,3,4-tetrahydroquinolin-3-yl)-1H-pyrazolo[3,4-d]pyrimidine-4,6-diamine] | < 50% | < 50% | < 50% | < 50% | < 50%
3 | 11000 nM | COc1cccc(CN2CC(Nc3nc(N)nc4[nH]ncc34)Cc3ccccc32)c1 (centres unmarked) [Compound 127, N4-[1-(3-methoxybenzyl)-1,2,3,4-tetrahydroquinolin-3-yl]-1H-pyrazolo[3,4-d]pyrimidine-4,6-diamine] | < 50% | 50 to 79% | < 50% | < 50% | 50 to 79%
4 | 3970 nM | Nc1nc(NC2Cc3ccccc3N(Cc3ccc(Cl)c(Cl)c3)C2)c2cn[nH]c2n1 (centres unmarked) [Compound 7, N^4-(1-(3,4-dichlorobenzyl)-1,2,3,4-tetrahydroquinolin-3-yl)-1H-pyrazolo[3,4-d]pyrimidine-4,6-diamine] | > 79% | > 79% | > 79% | > 79% | > 79%
5 | 17200 nM | Nc1nc(NC2Cc3ccccc3N(Cc3ccccc3)C2)c2cn[nH]c2n1 (centres unmarked) [Compound 125, N4-(1-benzyl-1,2,3,4-tetrahydroquinolin-3-yl)-1H-pyrazolo[3,4-d]pyrimidine-4,6-diamine] | < 50% | < 50% | < 50% | < 50% | < 50%
6 | 900 nM | Nc1nc(NC2Cc3ccccc3N(Cc3ccc(F)cc3)C2)c2cn[nH]c2n1 (centres unmarked) [Compound 6, N^4-(1-(4-fluorobenzyl)-1,2,3,4-tetrahydroquinolin-3-yl)-1H-pyrazolo[3,4-d]pyrimidine-4,6-diamine] | > 79% | > 79% | > 79% | > 79% | > 79%
7 | 7830 nM | Nc1nc(NC2Cc3ccccc3N(CCc3ccc(Cl)cc3Cl)C2)c2cn[nH]c2n1 (centres unmarked) [Compound 3, N^4-(1-(2-(2,4-dichlorophenyl)ethyl)-1,2,3,4-tetrahydroquinolin-3-yl)-1H-pyrazolo[3,4-d]pyrimidine-4,6-diamine] | > 79% | > 79% | > 79% | > 79% | > 79%
8 | 1190 nM | Nc1nc(NC2Cc3ccccc3N(Cc3cccc(Cl)c3)C2)c2cn[nH]c2n1 (centres unmarked) [Compound 126, N4-[1-(3-chlorobenzyl)-1,2,3,4-tetrahydroquinolin-3-yl]-1H-pyrazolo[3,4-d]pyrimidine-4,6-diamine] | < 50% | 50 to 79% | < 50% | < 50% | 50 to 79%
9 | > 30000 nM | CC(C)(C)c1ccc(CN2CC(Nc3nc(N)nc4[nH]ncc34)Cc3ccccc32)cc1 (centres unmarked) [Compound 131, N4-[1-(4-tert-butylbenzyl)-1,2,3,4-tetrahydroquinolin-3-yl]-1H-pyrazolo[3,4-d]pyrimidine-4,6-diamine] | < 50% | < 50% | < 50% | < 50% | < 50%
10 | 30 nM | Nc1nc(NC2Cc3ccccc3N(S(=O)(=O)c3cccc(Cl)c3)C2)c2cn[nH]c2n1 (centres unmarked) [Compound 26, N4-(1-(3-chlorophenylsulfonyl)-1,2,3,4-tetrahydroquinolin-3-yl)-1H-pyrazolo[3,4-d]pyrimidine-4,6-diamine] | > 79% | > 79% | 50 to 79% | < 50% | > 79%
11 | 270 nM | Nc1nc(NC2Cc3ccccc3N(S(=O)(=O)c3ccc(F)c(Cl)c3)C2)c2cn[nH]c2n1 (centres unmarked) [Compound 43, N4-(1-(3-chloro-4-fluorophenylsulfonyl)-1,2,3,4-tetrahydroquinolin-3-yl)-1H-pyrazolo[3,4-d]pyrimidine-4,6-diamine] | > 79% | > 79% | > 79% | > 79% | > 79%
12 | > 30000 nM | COc1ccc(CN2CC(Nc3nc(N)nc4[nH]ncc34)Cc3ccccc32)cc1OC (centres unmarked) [Compound 123, N4-[1-(3,4-dimethoxybenzyl)-1,2,3,4-tetrahydroquinolin-3-yl]-1H-pyrazolo[3,4-d]pyrimidine-4,6-diamine] | < 50% | < 50% | < 50% | < 50% | < 50%
13 | 21500 nM | Nc1nc(NC2Cc3ccccc3N(S(=O)(=O)c3cccc4cccnc34)C2)c2cn[nH]c2n1 (centres unmarked) [Compound 28, N4-(1-(quinolin-8-ylsulfonyl)-1,2,3,4-tetrahydroquinolin-3-yl)-1H-pyrazolo[3,4-d]pyrimidine-4,6-diamine] | < 50% | < 50% | < 50% | < 50% | < 50%
14 | 1200 nM | Nc1nc(NC2Cc3ccccc3N(S(=O)(=O)c3ccccc3Cl)C2)c2cn[nH]c2n1 (centres unmarked) [Compound 52, N4-(1-(2-chlorophenylsulfonyl)-1,2,3,4-tetrahydroquinolin-3-yl)-1H-pyrazolo[3,4-d]pyrimidine-4,6-diamine] | < 50% | < 50% | < 50% | < 50% | < 50%
15 | > 30000 nM | Cn1ccc(S(=O)(=O)N2CC(Nc3nc(N)nc4[nH]ncc34)Cc3ccccc32)n1 (centres unmarked) [Compound 54, N4-(1-(1-methyl-1H-pyrazol-3-ylsulfonyl)-1,2,3,4-tetrahydroquinolin-3-yl)-1H-pyrazolo[3,4-d]pyrimidine-4,6-diamine] | < 50% | < 50% | < 50% | < 50% | < 50%
16 | 1330 nM | Nc1nc(NC2Cc3ccccc3N(Cc3ccc(F)c(F)c3)C2)c2cn[nH]c2n1 (centres unmarked) [Compound 124, N4-[1-(3,4-difluorobenzyl)-1,2,3,4-tetrahydroquinolin-3-yl]-1H-pyrazolo[3,4-d]pyrimidine-4,6-diamine] | – | – | – | – | –
17 | – | Cc1ccc(Oc2ccc(S(=O)(=O)N3CC(Nc4nc(N)nc5[nH]ncc45)Cc4ccccc43)cc2)cc1 (centres unmarked) [Compound 69, N4-(1-(4-(p-tolyloxy)phenylsulfonyl)-1,2,3,4-tetrahydroquinolin-3-yl)-1H-pyrazolo[3,4-d]pyrimidine-4,6-diamine] | > 79% | > 79% | > 79% | > 79% | > 79%
18 | – | Nc1nc(NC2Cc3ccccc3N(S(=O)(=O)c3ccc(F)cc3)C2)c2cn[nH]c2n1 (centres unmarked) [Compound 20, N4-(1-(4-fluorophenylsulfonyl)-1,2,3,4-tetrahydroquinolin-3-yl)-1H-pyrazolo[3,4-d]pyrimidine-4,6-diamine] | < 50% | < 50% | < 50% | < 50% | < 50%
